Data from ChEMBL document CHEMBL5038635, “Discovery of Salidroside-Derivated Glycoside Analogues as Novel Angiogenesis Agents to Treat Diabetic Hind Limb Ischemia” (J Med Chem, 2022).
Calls of active or inactive are those of the source. No cut-off for these calls is given here.

Assays:
[1] = test system: C2C12; experiment: Angiogenic activity in mouse C2C12 cells assessed as reversal of hyperglycemia-induced reduction in total cell number at 100 uM measured after 24 to 36 hrs by EdU-incorporation assay; format: functional, cell-based; settings: time 24-36 hrs
[2] = test system: Mus musculus; experiment: Antidiabetic activity in diabetic HLI C57BL/6 mouse model assessed as morphological changes at 30 mg/kg administered intramuscularly; format: functional, organism-based
[3] = test system: C2C12; experiment: Upregulation of VEGF-A protein expression in mouse C2C12 cells at 30 uM by Western blot analysis; format: functional, cell-based
[4] = test system: Mus musculus; experiment: Angiogenic activity in diabetic HLI C57BL/6 mouse model assessed as increase in number of PECAM-1-positive cells at 30 mg/kg administered intramuscularly for 21 days followed by surgery by immunofluorescence analysis; format: functional, organism-based; settings: time 21.0 day
[5] = test system: C2C12; experiment: Upregulation of PIK3CG protein expression in mouse C2C12 cells at 30 uM by Western blot analysis; format: functional, cell-based
[6] = test system: C2C12; experiment: Apoptotic rate in mouse C2C12 cells with silenced HIF-1alpha assessed as late apoptotic cells at 30 uM by AnnexinV-FITC/PI staining based FACS analysis (reference value: 9.62 %); format: functional
[7] = test system: MOVAS-1; experiment: Induction proliferation of mouse MOVAS-1 cells assessed as increase in number of EdU-positive cells using conditioned medium of mouse C2C12 cells treated at 30 uM under hyperglycemic condition for 12 hrs followed by hypoxia for 24 hrs by EdU-incorporation assay; format: functional; settings: time 36 hrs
[8] = test system: C2C12; experiment: Upregulation of FGF2 protein expression in mouse C2C12 cells at 30 uM by Western blot analysis; format: functional, cell-based
[9] = test system: C2C12; experiment: Apoptotic rate in hyperglycemia-treated mouse C2C12 cells assessed as early apoptotic cells at 30 uM by AnnexinV-FITC/PI staining based flow cytometric analysis (reference value: 7.10 %); format: functional
[10] = test system: C2C12; experiment: Apoptotic rate in hyperglycemia-treated mouse C2C12 cells assessed as necrotic cells at 30 uM by AnnexinV-FITC/PI staining based flow cytometric analysis (reference value: 0.56 %); format: functional
[11] = Toxicity in diabetic HLI C57BL/6 mouse model assessed as liver pathology at 30 mg/kg, IM administered by HE staining based assay; format: organism-based; settings: in vivo
[12] = test system: Mus musculus; experiment: Angiogenic activity in diabetic HLI C57BL/6 mouse model assessed as HIF-1alpha protein expression at 30 mg/kg, im administered for 21 days followed by surgery by Western blot analysis; format: functional, organism-based; settings: time 21.0 day
[13] = test system: C2C12; experiment: Upregulation of IGF protein expression in mouse C2C12 cells at 30 uM by Western blot analysis; format: functional, cell-based
[14] = test system: C2C12; experiment: Upregulation of EPO protein expression in mouse C2C12 cells at 30 uM by Western blot analysis; format: functional, cell-based
[15] = Octanol/Water partition coefficient, log P of the compound by HPLC-UV analysis
[16] = test system: Mus musculus; experiment: Antidiabetic activity in diabetic HLI C57BL/6 mouse model assessed as PDGF-BB protein expression at 30 mg/kg, im administered for 21 days followed by surgery by Western blot analysis; format: functional, organism-based; settings: time 21.0 day
[17] = test system: HUVEC; experiment: Angiogenesis activity in human HUVEC cells assessed as increase of cell migration using conditioned medium of mouse C2C12 cells with silenced HIF-1alpha treated at 30 uM under hyperglycemic condition for 12 hrs followed by hypoxia for 24 hrs by crystal violet dye based transwell assay; format: functional; settings: time 36.0 hrs
[18] = test system: MOVAS-1; experiment: Angiogenesis activity in mouse MOVAS-1 cells assessed as suppression of cell migration using conditioned medium of mouse C2C12 cells with silenced HIF-1alpha treated at 30 uM under hyperglycemic condition for 12 hrs followed by hypoxia for 24 hrs in presence of PDGF-BB inhibitor CP868596 by crystal violet dye based transwell assay; format: functional; settings: time 36.0 hrs
[19] = test system: C2C12; experiment: Upregulation of HGF protein expression in mouse C2C12 cells at 30 uM by Western blot analysis; format: functional, cell-based
[20] = test system: C2C12; experiment: Angiogenic activity in mouse C2C12 cells assessed as reversal of hyperglycemia-induced reduction in cell number by measuring cell proliferation measured after 12 to 36 hrs; format: functional, cell-based
[21] = Protein binding in human plasma by balanced dialysis method; format: ADME, cell-free; settings: read-out: PPB (converted)
[22] = test system: C2C12; experiment: Induction of proliferation of hyperglycemia-induced mouse C2C12 cell apoptosis assessed as decrease in Annexin V/PI-positive cells at 15 uM pretreated with compound under hyperglycemia condition for 12 hr followed by hypoxia for 24 hrs; format: functional, cell-based; settings: time 36.0 hrs
[23] = test system: Mus musculus; experiment: Antidiabetic activity in diabetic HLI C57BL/6 mouse model assessed as increase in blood perfusion recovery at 30 mg/kg administered intramuscularly measured after 21 days; format: functional; settings: time 21 day
[24] = test system: C2C12; experiment: Apoptotic rate in hyperglycemia-treated mouse C2C12 cells assessed as necrotic cells at 15 uM by AnnexinV-FITC/PI staining based flow cytometric analysis (reference value: 0.56 %); format: functional
[25] = test system: HUVEC; experiment: Induction proliferation of human HUVEC cells assessed as increase in number of EdU-positive cells using conditioned medium of mouse C2C12 cells with silenced HIF-1alpha treated at 30 uM under hyperglycemic condition for 12 hrs followed by hypoxia for 24 hrs by EdU-incorporation assay; format: functional, cell-based; settings: time 36.0 hrs
[26] = test system: C2C12; experiment: Apoptotic rate in hyperglycemia-treated mouse C2C12 cells assessed as early apoptotic cells at 15 uM by AnnexinV-FITC/PI staining based flow cytometric analysis (reference value: 7.10 %); format: functional
[27] = test system: C2C12; experiment: Upregulation of HO-1 protein expression in mouse C2C12 cells at 30 uM by Western blot analysis; format: functional, cell-based
[28] = test system: C2C12; experiment: Reversal of hyperglycemia-induced PDGF-BB protein level reduction in mouse C2C12 cells measured at 30 uM by ELISA; format: functional, cell-based
[29] = test system: C2C12; experiment: Apoptotic rate in hyperglycemia-treated mouse C2C12 cells assessed as late apoptotic cells at 15 uM by AnnexinV-FITC/PI staining based flow cytometric analysis (reference value: 10.44 %); format: functional
[30] = Stability in rat plasma assessed as compound remaining at 6.25 to 25 mg/L after 12 hrs by HPLC analysis; format: ADME, cell-free; settings: at 6.25 to 25 µg/mL, dose 6.25-25 mg/L, read-out: Stability
[31] = test system: Mus musculus; experiment: Angiogenic activity in diabetic HLI C57BL/6 mouse model assessed as VEGF-A protein expression at 30 mg/kg, im administered for 21 days followed by surgery by Western blot analysis; format: functional, organism-based; settings: time 21.0 day
[32] = Metabolic stability in rat leg muscle homogenates assessed as compound remaining after 30 min by HPLC analysis; format: ADME, tissue-based, muscle of leg; settings: read-out: Stability
[33] = test system: C2C12; experiment: Angiogenesis activity in mouse C2C12 cells with silenced HIF-1alpha assessed increase in cell migration at 30 uM under hyperglycemic condition incubated for 24 hrs by crystal violet dye based transwell chamber assay; format: functional
[34] = Toxicity in diabetic HLI C57BL/6 mouse model assessed as kidney pathology at 30 mg/kg, IM administered by HE staining based assay; format: organism-based; settings: in vivo
[35] = Permeability coefficient across apical to basolateral side in human Caco-2 cells by HPLC-UV analysis
[36] = Permeability coefficient across basolateral to apical side in human Caco-2 cells by HPLC-UV analysis
[37] = test system: Mus musculus; experiment: Antidiabetic activity in diabetic HLI C57BL/6 mouse model assessed as increase in blood perfusion recovery at 30 mg/kg administered intramuscularly; format: functional, organism-based
[38] = test system: C2C12; experiment: Angiogenic activity in mouse C2C12 cells assessed as reversal of hyperglycemia-induced reduction in total cell number at 30 uM measured after 24 to 36 hrs by EdU-incorporation assay; format: functional, cell-based; settings: time 24-36 hrs

**Q.** Which Activity [1] does the source give for `COc1ccc(Cc2cccc(O[C@@H]3O[C@H](CO)[C@@H](O)[C@H](O)[C@H]3O)c2)cc1` here?
**A.** Its Activity is “inactive”.

**Q.** What about the Activity [2] of the same compound?
**A.** Its Activity is “Active”.

**Q.** What about the Activity [3] of the same compound?
**A.** The Activity was “Active”.

**Q.** What about the Activity [4] of the same compound?
**A.** Its Activity is “Active”.

**Q.** What about the Activity [5] of the same compound?
**A.** The Activity was “Active”.

**Q.** And the Activity [6]?
**A.** Its Activity is 14.63%.

**Q.** And the “fold change (FC)” value [7]?
**A.** The value was 2.

**Q.** And the Activity [8]?
**A.** The Activity was “Active”.

**Q.** And the Activity [9]?
**A.** The Activity was 2.13%.

**Q.** What about the Activity [10] of the same compound?
**A.** Its Activity is 0.35%.

**Q.** What about the Activity [11] of the same compound?
**A.** Its Activity is “Non-Toxic”.

**Q.** And the Activity [12]?
**A.** Its Activity is “Active”.

**Q.** And the Activity [13]?
**A.** The Activity was “Active”.

**Q.** And the Activity [14]?
**A.** The Activity was “Active”.

**Q.** What about the logP [15] of the same compound?
**A.** The logP was 0.971.

**Q.** What about the Activity [16] of the same compound?
**A.** Its Activity is “Active”.

**Q.** What about the Activity [17] of the same compound?
**A.** Its Activity is “Active”.

**Q.** And the Activity [18]?
**A.** Its Activity is “inactive”.

**Q.** And the Activity [19]?
**A.** The Activity was “Active”.

**Q.** What about the EC50 [20] of the same compound?
**A.** The EC50 was 17.3 µM.

**Q.** And the fraction unbound [21]?
**A.** The fraction unbound was 0.669.

**Q.** And the Activity [22]?
**A.** Its Activity is “Active”.

**Q.** What about the Activity [23] of the same compound?
**A.** The Activity was 80%.

**Q.** And the Activity [24]?
**A.** Its Activity is 0.38%.

**Q.** What about the Activity [25] of the same compound?
**A.** Its Activity is “Active”.

**Q.** What about the Activity [26] of the same compound?
**A.** Its Activity is 3.14%.

**Q.** What about the Activity [27] of the same compound?
**A.** Its Activity is “Active”.

**Q.** And the Activity [28]?
**A.** The Activity was “Active”.

**Q.** And the Activity [29]?
**A.** Its Activity is 7.61%.

**Q.** And the remaining at 12 h [30]?
**A.** Its remaining at 12 h is 98.5%.

**Q.** And the Activity [31]?
**A.** The Activity was “Active”.

**Q.** What about the remaining at 0.5 h [32] of the same compound?
**A.** Its remaining at 0.5 h is 99%.

**Q.** What about the Activity [33] of the same compound?
**A.** The Activity was “inactive”.

**Q.** What about the Activity [34] of the same compound?
**A.** Its Activity is “Non-Toxic”.

**Q.** And the Papp A→B [35]?
**A.** The Papp A→B was 1.04 ×10⁻⁶ cm/s.

**Q.** And the Papp B→A [36]?
**A.** Its Papp B→A is 1.11 ×10⁻⁶ cm/s.

**Q.** What about the Activity [37] of the same compound?
**A.** The Activity was “Active”.

**Q.** And the Activity [38]?
**A.** Its Activity is “inactive”.
